# Conditions: buffer; pH 7.4; 200.0 µM
row,SMILES,solubility kinetic [µg/mL]
1,COc1ccc(-c2nnc(SCC(=O)NC3CC3)o2)cc1,> 45.8
2,Cc1cccc(Oc2nc(-c3ccncc3)nc3ccccc23)c1,< 0.2
3,Cc1ccc(/C=C/C(=O)OCC(=O)c2ccc3c(c2)NC(=O)CO3)o1,17.8
4,O=c1[nH]cnc2c1ncn2[C@@H]1C[C@@H](O)[C@H](CO)O1,> 37.8
5,CCCCNC(=O)C1CCCN(S(=O)(=O)CC)C1 (centres undefined),> 41.5
6,CN1C(N)=NC(=O)/C1=C\c1ccc(Br)cc1,33.7
7,CCS(=O)(=O)N1CCN(c2ncnc3sc(C)c(C)c23)CC1,> 51.1
8,FC(F)(F)c1cccc(N2CCN(C3CC4CCC3C4)CC2)c1 (centres undefined),1.4
9,O=C(c1cc([N+](=O)[O-])ccc1N1CCCC1)N1CCCCC1,25.9
10,OC(c1ccccc1)c1nc2ccccc2[nH]1 (centres undefined),> 33.6
11,COc1ccc(N2CCN(C(=O)[C@H](C)N3C(=O)C4CC=CCC4C3=O)CC2)cc1 (some centres undefined),> 59.6
12,Cc1ccc(CONC(=O)c2ccccc2)cc1,> 36.2
13,O=C(C[n+]1ccc(/C=N/O)cc1)NCc1ccccc1.[Cl-],41.3
14,Fc1ccc2nc(N3CCCC3)sc2c1,15.6
15,Cc1ccccc1OCCNCC(C)O.O=C(O)C(=O)O (centres undefined),27
16,CCOc1ccc(N(C)S(=O)(=O)c2cnc[nH]2)cc1,> 42.2
17,COc1cccc(CSc2nccn2C)c1,> 35.1
18,CCC1(C)Cc2ccccc2-c2nc(NCCCO)n(C)c(=O)c21 (centres undefined),> 49.1
19,CC(C)(C)C(=O)N(Cc1ccc(Cl)cc1)c1cnccn1,> 45.6
20,CSc1ccccc1NC(=O)c1ccccc1C,30.9
21,Cc1ccc(CC2C(=O)N(c3cc(Cl)ccn3)C(=O)C2C)cc1 (centres undefined),> 49.3
22,COc1ccc(CN(C)CC(=O)NC(C)c2ccccc2)c(OC)c1 (centres undefined),51.2
23,COc1ccc(CCC(=O)OCC(=O)NCc2ccc(OC)c(OC)c2)cc1OC,> 62.6
24,Cc1ccc(S(=O)(=O)N[C@H](C(=O)OCC(=O)NC(=O)C2CCCCC2)C(C)C)cc1,11.4

row,SMILES,solubility kinetic [µg/mL]
1,O=C(Nc1ccccc1)N1CCCC1c1cccs1 (centres undefined),39.9
2,COc1cc(N=Cc2c(CO)cnc(C)c2O)cc(OC)c1OC,49.2
3,Cc1ccccc1C(=O)Nc1ccccc1C(=O)N1CCC(C)CC1,32.9
4,Oc1ccc2ccccc2c1CNc1ccc(Br)cc1,5.5
5,Cc1cc(C)n(CCCNC(=O)c2ccc(C)o2)n1,> 39.2
6,O=C(O)CN=CC1=C(O)CC(c2ccccc2)CC1=O (centres undefined),39.9
7,Cc1ccccc1NC(=O)c1ccccc1N(C)S(=O)(=O)c1ccccc1,46.3
8,CCO/C=C1/C(=O)N(c2ccccc2OC)C(=O)c2ccccc21,> 48.5
9,c1ccc2[nH]cnc2c1,> 17.7
10,CC(C)n1c(SCC(=O)NC2CCCCC2)nnc1-c1ccco1,> 52.3
11,O=C1CCC([N+](=O)[O-])C(c2ccc(C(F)(F)F)cc2)N1 (centres undefined),> 43.2
12,COc1ccc(S(=O)(=O)N2CCOCC2)cc1NC(=O)CN1CCCc2ccccc21,2.9
13,Cc1ccc(S(=O)(=O)N[C@H](C(=O)NC2CCC(C)CC2)C(C)C)cc1 (some centres undefined),24
14,CC1(C)CC(NC(=O)Nc2ccc([N+](=O)[O-])cc2)CC(C)(C)N1,> 48.1
15,CC(C)(C)C1CCCCC1NC(=O)c1ccncc1 (centres undefined),4.1
16,CC(=O)c1cccc(NC(=O)c2ccc(C)o2)c1,> 36.5
17,CCOc1ccc(CN(C)CC(=O)NCc2ccccc2)cc1,34.8
18,Cc1ccc(CNC(=O)CCn2c(=O)oc3ccccc32)cc1,5.1
19,Cc1cccc(C)c1OCC(=O)Nc1cccc(C(=O)O)c1,> 44.9
20,CCCCSc1nc2sc3c(c2c(=O)[nH]1)CC(C)(CC)OC3 (centres undefined),0.5
21,O=C(O)/C=C/C(=O)NCCc1ccccc1,> 32.9
22,Cc1ccc(NC(=O)C(=O)NCC2CCCO2)cc1C (centres undefined),> 41.5
23,CCN(C(=O)COc1ccc(N(C)S(=O)(=O)c2ccc(NC(C)=O)cc2)cc1)C1CCCCC1,18.9
24,CC(C)(C)Nc1nc(-c2ccccn2)nc2ccccc12,> 41.8

row,SMILES,solubility kinetic [µg/mL]
1,Cc1ccc(C(C)C)c(OCCCn2ccnc2C)c1.O=C(O)C(=O)O,51.2
2,CC(=O)c1c(C)nc(-c2ccc(OCC(=O)Nc3ccccc3)cc2)n1O,51.3
3,CN(C)S(=O)(=O)c1cccc(NC(=O)c2c[nH]c3ccccc23)c1,42.6
4,CCc1sc(C(=O)Nc2nc(-c3ccccn3)cs2)cc1C,2.9
5,Cc1cccc(NC(=O)NC2CCCCCCC2)c1,5.2
6,Cc1ccc(C(=O)C2CCN(C(=S)NCC3CCCO3)CC2)cc1 (centres undefined),46.7
7,CCCCC(C(=O)O)C(C)CC(=O)Nc1nccs1 (centres undefined),> 42.7
8,CCC1(CC)NC(=O)N(CC(=O)Nc2ccc(C)cc2C)C1=O,> 47.6
9,COc1ccc(Br)cc1S(=O)(=O)NCCc1cccs1,34.4
10,COc1ccc(CCNC(=O)CCc2ccccc2)cc1OC,> 47
11,CC(=O)c1cccc(NC(=O)/C=C/c2ccc(S(=O)(=O)N3CCOCC3)cc2)c1,5.1
12,Cc1sc2nc(SCCO)n(-c3ccccc3)c(=O)c2c1C,1.4
13,Nc1ccc(C(=O)O)cc1,> 20.6
14,Cc1ccc(-c2nc3ncccc3o2)cc1NC(=O)c1ccc([N+](=O)[O-])o1,1.7
15,O=C(COC(=O)c1ccccc1F)Nc1ccc(S(=O)(=O)N2CCOCC2)cc1,38
16,COc1ccc(NC(=O)NC2CCCc3ccccc32)cc1OC (centres undefined),1.1
17,CCOC(=O)C1CCCN(/C=C2\SC(=S)N(CC)C2=O)C1 (centres undefined),39.4
18,CN(C)CCN(C(=O)c1ccc2ccccc2c1)c1nc2c(F)cc(F)cc2s1.Cl,32.8
19,COc1ccc(NC(=O)COC(=O)CNC(=O)C2CCCCC2)cc1OC,> 56.8
20,CCOc1ccc2[nH]c3c(NCCN(CC)CC)ncnc3c2c1,43.2
21,O=C(Nc1cccnc1Cl)c1noc2c1CCc1ccccc1-2,< 0.2
22,CCc1cc(C(=O)c2ccc(OC)cc2)c(NC(=O)CN2CCCC2)s1,5.9
23,O=C(COC(=O)CN1C(=O)NC2(CCCC2)C1=O)NCc1ccc(Cl)cc1Cl,> 64.2
24,COc1cccc(OCc2nc(-c3ccc(Br)o3)no2)c1,7.1

row,SMILES,solubility kinetic [µg/mL]
1,COC(=O)c1csc(S(=O)(=O)N2CCCCC2)c1OC,> 47.9
2,Fc1cccc(Cl)c1CNCc1cccnc1,> 37.6
3,CNC(=O)Nc1ccc(C(O)(C(=O)OC)C(F)(F)F)cc1 (centres undefined),> 45.9
4,CC(=O)Oc1ccc(N(C(C)=O)S(=O)(=O)c2ccc(C)cc2C)c2ccccc12,4.3
5,CN(C)S(=O)(=O)c1cccc(NC(=O)CC23CC4CC(CC(C4)C2)C3)c1,10.8
6,Cc1ccsc1C1C(C#N)=C(N)OC2=C1C(=O)CCC2 (centres undefined),41.9
7,CN(C)C(CNc1ncnc2ccccc12)c1c(F)cccc1Cl (centres undefined),49.4
8,Cc1ccc(S(=O)(=O)N2CC=C(C(=O)NC3CC3)CC2)cc1,40.5
9,Cc1nc(NCCc2ccccc2)sc1C(=O)O,38.7
10,CS(=O)(=O)Nc1ccc(Oc2ncccn2)cc1,> 39.8
11,Cc1cc(OCC(=O)NCCc2c[nH]c3ccccc23)c2c(C)cc(=O)oc2c1,< 0.4
12,COc1ccc(C(=O)N2C[C@H]3C[C@@H](C2)c2cccc(=O)n2C3)cc1OC,> 53.2
13,Cn1c(=O)c2c(nc(N3CCCC3)n2C)n(C)c1=O,> 39.5
14,CC(=O)Nc1ccccc1OCC(=O)NCC(F)(F)F,43.2
15,O=C(CNC(=O)c1sc2ccccc2c1Cl)NC1CC1,4
16,O=C(Nc1cccc2ncccc12)c1cccc(Br)c1,16.2
17,CN(C)c1cccc(C(=O)NCCCSc2ccccc2)c1,17.9
18,CC(=O)c1c(C)[nH]c(C(=O)NCc2cccc(Cl)c2)c1C,18.9
19,Cc1ccc(NC(=O)C(=O)C2C(=O)Nc3ccccc32)cc1 (centres undefined),39.8
20,O=C(COC(=O)C12CC3CC(CC(Cl)(C3)C1)C2)Nc1ccccc1,5.9
21,CCN(CC)CCSc1nc2ccc(OC)cc2[nH]1.Cl,> 52.8
22,CCOc1ccc2[nH]c(SCC(=O)OC)c([N+](=O)[O-])c2c1,19.1
23,Cl.NC(Cc1ccccc1)Cc1ccccc1,> 37.2
24,Cn1c(=O)oc2cc(S(=O)(=O)Nc3ccccc3F)ccc21,15.6

row,SMILES,solubility kinetic [µg/mL]
1,O=[N+]([O-])c1cccnc1Sc1ccccc1Cl,1.7
2,COC(=O)c1oc(-c2ccc(Cl)cc2)nc1C,2
3,O=C(Nc1ccc(Br)c(Br)c1)C1CCCO1 (centres undefined),38.8
4,O=C(Cc1ccccc1)Nc1ccc2oc(=O)ccc2c1,39.9
5,Cc1ccc(S(=O)(=O)N2CCC(C(=O)NC3CC3)CC2)cc1,> 48.4
6,Cc1ccc(NC(=O)C2=NNC(=O)CC2)cc1F,> 37.4
7,CCN1CCCC1CNC(=O)C(=O)NC (centres undefined),> 32
8,CCOc1ncccc1C(=O)NCc1ccccc1Cl,33.1
9,CC(C)OC(=O)CSc1nc(Cc2ccccc2)nc2ccccc12,< 0.4
10,CC(C)(C)NC(=O)CSc1ncccc1-c1nc2ccccc2[nH]1,3.3
11,O=Cc1ccc(C(=O)OCC(=O)NC(=O)Nc2ccccc2F)cc1,28.9
12,CCCCOc1ccc(C(=O)N2CCN(c3ncccn3)CC2)cc1,12.2
13,CN(CC(=O)NCCc1ccc(F)cc1)Cc1ccccc1,38.7
14,OCCN(CC#CCn1c2ccccc2c2ccccc21)CCO,> 48.4
15,Cc1cc(=O)[nH]c(SCC(=O)N2CCCC(C)C2)n1 (centres undefined),> 42.2
16,CC(C)(C)c1ccccc1NC(=O)NC1CCN(Cc2c(F)cccc2Cl)CC1,0.5
17,COc1cc(/C=C/C(=O)OCC(=O)NCC2CCCCC2)ccc1O,> 52.1
18,Oc1ccc(C=Nc2ccc3ncccc3c2)c(O)c1,30.5
19,Cn1cc([N+](=O)[O-])c(C(=O)N2CCCCCC2)n1,> 37.8
20,COc1cccc(OC)c1OCCNCC1COc2ccccc2O1.Cl (centres undefined),> 57.3
21,C/C(=N\O)c1oc2ccc3c(C)cc(=O)oc3c2c1C,< 0.6
22,Cc1ccc(NC2CC(C)NC(=S)N2)cc1 (centres undefined),33.1
23,COc1ccc(C)cc1S(=O)(=O)N1CC(C)OC(C)C1 (centres undefined),> 44.9
